Source: patent US5141959A, “Isoprenoid phospholipase A2 inhibitors and preparations comprising same” (Bristol-Myers Squibb Company, priority 1990, dated 1992)

Experiments:
[1] = system: myeloperoxidase (MPO) activity; assay: Phorbol ester (TPA)-induced mouse ear inflammation assay: cell infiltration (neutrophil accumulation by myeloperoxidase activity); assay type: in vivo, CD-1 mice; settings: topical, six hours
Experimental: (§1) Anti-inflammatory activity of the test compounds was determined in the phorbol ester-induced mouse ear inflammation model. [Young J M, Wagner B M and Spires D A, J Invest Dermatol, 80, 48-52 (1983)]. In this assay, an inflammatory reaction is induced by the topical application of 0.01% (w/v) tetradecanoylphorbol-13-acetate (TPA) to the ears of CD-1 mice. An acute inflammatory reaction results in which the ears swell and inflammatory cells infiltrate the ear tissue. TPA, with and without various concentrations of test compound, was applied to the inner and outer aspects of the ears (10 μl/surface). After six hours, the mice were sacrificed and the ears were removed. Ear tissue punches (5/16") were taken from each ear and weighed to measure edema. The ear punches were then processed for the determination of neutrophil accumulation by measurement of myeloperoxidase (MPO) activity by the method of Bradley et al. [Bradley P P et al, J Invest Dermatol, 78, 206-209 (1982)]. MPO is a specific marker for the presence of neutrophils in tissue.
(§2) The anti-inflammatory activity produced by the test compound is calculated by comparing the edema or MPO values obtained for the drug-treated ears to those obtained for non-drug treated ears. Percent inhibition values were determined by the equation: [formula] […] The ED50 is estimated to be 0.8%.

human platelet PLA2 = target: T1, human platelet PLA2 (Homo sapiens, UniProt P14555); assay: PLA2 Inhibition Assay (14C-oleate labeled E. coli membrane substrate); assay type: biochemical; settings: preincubation 7 min, incubation 30 min, 37° C., pH 7; unit inferred; read-out: IC50 for inhibition of human platelet phospholipase A2
T1 construct: The enzyme was isolated from human platelets; from tissue; host or cells: human platelets
T1 sequence (P14555 21-144): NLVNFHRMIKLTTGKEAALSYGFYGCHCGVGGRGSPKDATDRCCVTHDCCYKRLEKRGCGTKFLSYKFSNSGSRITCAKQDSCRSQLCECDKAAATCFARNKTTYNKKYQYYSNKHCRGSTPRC
Experimental: This assay is used to measure the inhibition of human platelet PLA2 by test compounds. The method used was similar to that reported by Franson et al. [Jesse RL and Franson RC, Biochem Biophys Acta, 575, 467-470 (1979)]. [Franson RC, Patriarca P and Elsback P, J Lipid Res 15, 380-388 (1974)]. The enzyme was isolated from human platelets. The substrate used consisted of ^14 C-oleate labeled E. coli membranes. E. Coli cells were grown in the presence of ^14 C-oleic acid and then autoclaved to prepare membranes. In the assay, various concentrations of test compounds are preincubated with PLA2 (7.5 μg/ml) in a buffer consisting of 25 mM HEPES (pH 7) 150 mM NaCl, 5.0 mM Cacl2, and 10% DMSO (test compound solvent) at 37° C. for 7 minutes. The E. coli membrane substrate is then added (0.1 mM phospholipid, 0.5 μCi/umol) and the reaction is incubated at 37° C. for 30 minutes. The final reaction volume is 0.1 ml. The reaction is quenched with tetrahydrofuran (1.9 ml), and the entire solution is applied to a solid-phase extraction column (aminopropylresin, Analytichem). […] The amount of free fatty acid product is determined by liquid scintillation counting. The amount of inhibition produced by the test compound is calculated by comparing the number of counts obtained in the presence of the compound to that obtained for the control reactions (test compound solvent only). […]

[2] = system: TPA-induced mouse ear edema; assay: Phorbol ester (TPA)-induced mouse ear inflammation assay: edema (ear weight); assay type: in vivo, CD-1 mice; settings: topical, six hours
Experimental: as §1, §2

Row | SMILES | Blocking of edema and cell infiltration (in words) ([1]; statement covers edema and cell infiltration) | ED50, inhibition of cell infiltration ([1]; with TPA 0.01% (w/v), MPO activity) [%] | IC50 (human platelet PLA2) [µM] | Blocking of TPA-induced mouse ear edema (in words) [2] | ED50, TPA-induced mouse ear edema ([2]; with TPA 0.01% (w/v)) [%]
1 | CC1=C(/C=C/C(C)=C/C=C(/C(C)=C\C(=O)O)c2cccc(C(=O)O)c2)C(C)(C)CCC1 [Compound I, 13-CIS-12-(3'-CARBOXYPHENYL)RETINOIC ACID] | effectively blocks edema and cell infiltration | < 0.1 | 40 | dose-dependently blocks TPA-induced mouse ear edema | ~0.8
2 | CC1=C(/C=C/C(C)=C/C=C/C(C)=C/C(=O)O)C(C)(C)CCC1 [reference compound] |  |  | > 500 |  | 
